The values that follow come from patent US10155755B2, “Quinuclidine derivative” (LTT BIO-PHARMA CO., LTD., priority 2015, dated 2018).

T1 sequence (P20309 whole entry): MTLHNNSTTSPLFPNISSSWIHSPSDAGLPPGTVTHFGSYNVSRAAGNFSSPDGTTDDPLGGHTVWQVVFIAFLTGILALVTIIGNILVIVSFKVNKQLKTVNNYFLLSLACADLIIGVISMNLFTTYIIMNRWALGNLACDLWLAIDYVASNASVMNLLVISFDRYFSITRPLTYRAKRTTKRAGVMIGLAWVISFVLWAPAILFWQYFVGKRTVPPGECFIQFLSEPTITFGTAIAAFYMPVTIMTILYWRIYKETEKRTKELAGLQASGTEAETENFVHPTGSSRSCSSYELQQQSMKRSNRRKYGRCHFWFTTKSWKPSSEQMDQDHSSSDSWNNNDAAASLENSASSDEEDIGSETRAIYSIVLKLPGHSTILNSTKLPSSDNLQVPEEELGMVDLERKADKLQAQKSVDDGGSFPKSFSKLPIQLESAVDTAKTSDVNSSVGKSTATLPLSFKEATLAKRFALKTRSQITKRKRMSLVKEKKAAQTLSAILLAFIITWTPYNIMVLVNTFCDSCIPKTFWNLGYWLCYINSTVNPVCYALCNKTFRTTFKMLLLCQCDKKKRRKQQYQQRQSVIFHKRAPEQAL

The test system of one test is porcine pancreatic elastase-induced inflammation. Briefly: Effect on porcine pancreatic elastase-induced inflammation (total cells in BALF). The conditions noted are these: single transairway dose 1 hour before porcine pancreatic elastase 100 μg/mouse; BALF 24 hours after elastase; ICR mice. The class given is in vivo. The procedure:
To 4 to 6-week old ICR mice, a test compound was administered once through the transairway. Porcine pancreatic elastase at 100 μg/mouse was administered 1 hour after the administration of the test compound. Bronchoalveolar lavage fluid (BALF) was collected from the lungs 24 hours after the administration of porcine pancreatic elastase, and the total number of cells was measured.
Regarding `O=C(O[C@H]1C[N+]2(CCCOc3ccccc3)CCC1CC2)C(O)(c1cccs1)c1cccs1` [aclidinium, reference compound], the “total number of cells in BALF” value is listed as “did not show any beneficial anti-inflammatory effects”.
For `O=C(O[C@H]1C[N+]2(CCCc3ccccc3)CCC1CC2)C(O)(c1ccccc1)c1ccccc1` [Compound 1-18], the “total number of cells in BALF” value is reported as “reduced in a dose-dependent manner”.
For the compound `O=C(O[C@@H]1C[N+]2(CCCc3ccccc3)CCC1CC2)C(O)(c1ccccc1)c1ccccc1` [Compound 1-19], the “total number of cells in BALF” value is on record as “reduced in a dose-dependent manner”.
As to `O=C(OC1C[N+]2(CCCc3ccccc3)CCC1CC2)C(O)(c1ccccc1)c1ccccc1` (centres unmarked) [Compound 1-20], the “total number of cells in BALF” value is “reduced in a dose-dependent manner”.

A further test addresses T1, human M3 receptor (Homo sapiens, UniProt P20309).
T1 construct: expressed in transfected cells; host or cells: CHO cells (membrane preparation)
Briefly: Human M3 receptor antagonist activity, [3H]NMS receptor binding.
Conditions: not given
The procedure: Measurement of the receptor binding ability was performed by using a transgenic human M3 receptor expression CHO cell membrane, 1-[N-methyl-^3H] scopolamine methyl bromide ([^3H]NMS, specific activity of 82 Cimmol). Protein concentration of the cell membrane was 2 μg per well, concentration of the [^3H]NMS was 1.0 nM.
Range of the antagonist concentration (10^−4 to 10^−11 M) was tested by creating a comparison curve. Unspecific binding was measured in the presence of 1 μM of atropine.
The reagent was adjusted to a total volume of 100 μL with a binding buffer (phosphate buffer/saline). The mixture was incubated at room temperature for 2 hours so as to reach equilibrium, and then the resultant mixture was transplanted to a GF/C filter plate that had been pretreated with a washing buffer containing 0.05% polyethyleneimine for 1 hour.
The bound [^3H]NMS and the free[^3H]NMS were separated by rapid vacuum filtration, and washed three times with a rinse buffer (50 mM of Tris, 100 mM of saline, and pH of 7.4). The obtained filter was dried, and then onto the dried filter, a solid scintillator, MeltiLex A (manufactured by PerkinElmer, Inc.) was fused, and the measurement and quantification were performed by using a β-counter (MicroBeta microplate scintillation counter (Trilux)).
The Ki value was calculated by the following equation.
The Ki is the dissociation constant of the complex between target and ligand, obtained from inhibition or displacement. Read a high Ki as a looser hold on the target. `O=C(OC1C[N+]2(CCCOc3ccc(OC(F)(F)F)cc3)CCC1CC2)C(O)(c1ccccc1)c1ccccc1` (centres unmarked) [Compound 1-36] returned a Ki of 0.39 nM.
For the compound `O=C(OC1C[N+]2(CCOc3ccccc3Cl)CCC1CC2)C(O)(c1ccccc1)c1ccccc1` (centres unmarked) [Compound 1-5], affinity was put at a Ki of 2.39 nM.
Consider `O=C(OC1C[N+]2(CCCOc3ccc(F)cc3)CCC1CC2)C(O)(c1ccccc1)c1ccccc1` (centres unmarked) [Compound 1-29], for which the Ki came to 0.19 nM.
The compound `O=C(OC1C[N+]2(CCOc3ccccc3F)CCC1CC2)C(O)(c1ccccc1)c1ccccc1` (centres unmarked) [Compound 1-4] yielded a Ki of 0.114 nM.
Regarding `Cc1ccc(OCCC[N+]23CCC(CC2)C(OC(=O)C(O)(c2ccccc2)c2ccccc2)C3)cc1` (centres unmarked) [Compound 1-33], the inhibition constant Ki is 0.058 nM.
Regarding `O=C(OC1C[N+]2(CCCOc3ccc(C(F)(F)F)cc3)CCC1CC2)C(O)(c1ccccc1)c1ccccc1` (centres unmarked) [Compound 1-34], the affinity, expressed as Ki, was 2.7 nM.
On the same count and under the same terms, to `O=C(OC1C[N+]2(CCCOc3ccc(I)cc3)CCC1CC2)C(O)(c1ccccc1)c1ccccc1` (centres unmarked) [Compound 1-32] belongs 0.22 nM.
Compound `O=C(OC1C[N+]2(CCCOc3ccc(Br)cc3)CCC1CC2)C(O)(c1ccccc1)c1ccccc1` (centres unmarked) [Compound 1-31] displayed a Ki of 0.32 nM.
With `O=C(OC1C[N+]2(CCCOc3ccc(Cl)cc3)CCC1CC2)C(O)(c1ccccc1)c1ccccc1` (centres unmarked) [Compound 1-30], the affinity, expressed as Ki, was 0.084 nM.
Take `O=C(OC1C[N+]2(CCOCc3ccccc3)CCC1CC2)C(O)(c1ccccc1)c1ccccc1` (centres unmarked) [Compound 1-41]: the inhibition constant Ki worked out at 0.12 nM.
The compound `COc1ccc(OCCC[N+]23CCC(CC2)C(OC(=O)C(O)(c2ccccc2)c2ccccc2)C3)cc1` (centres unmarked) [Compound 1-35] gave an inhibition constant (Ki) of 5.89 nM. This Ki is about 49-fold higher than that of the compound before.
Compound `O=C(OC1C[N+]2(CCOc3ccccc3Br)CCC1CC2)C(O)(c1ccccc1)c1ccccc1` (centres unmarked) [Compound 1-6] had a Ki of 0.458 nM.

A further test deals with methacholine-induced airway constriction. Briefly: Effect on methacholine-induced airway constriction (airway resistance). The class given is in vivo. The conditions noted are these: 47.9 μg/kg transairway, when exceeding 96 hours after the administration, ICR mice (FIG. 2). The procedure:
The increase of airway resistance by methacholine induction was measured. To 4 to 6-week old ICR mice, methacholine at 1 mg/mL was administered 5 times by spraying the methacholine for 20 seconds. After completion of the methacholine administration, the airway resistance was measured by a snap shot technique. All of the data were analyzed by using FlexiVent software.
The test compound at 47.9 μg/kg was administered to the mice through the transairway. The mice were exposed 5 times to nebulized methacholine 1 hour, 96 hours, and 120 hours after the administration, and the airway resistance at each time was measured.
Consider `O=C(O[C@H]1C[N+]2(CCCOc3ccccc3)CCC1CC2)C(O)(c1cccs1)c1cccs1` [aclidinium, reference compound], for which the “airway resistance after methacholine” value is on record as “did not reduce the airway resistance”.
